Results on one molecule are retold here after patent US20220241285A1, “ORAL CAPSULE AND PREPARATION METHOD THEREFOR” (BEIGENE SWITZERLAND GMBH, priority 2019, published 2022).

Assay type in all cases: physicochemical
A short description of series [1]: Solubility / biopharmaceutical classification.
Series [2] in a line: Hygroscopicity of the active pharmaceutical ingredient. The conditions noted are these: active pharmaceutical ingredient (API).
Series [3] can be described thus: XRPD of the mixed powder in the study on the mixing process (crystal form stability). The conditions noted are these: mixed powder of Example 1, mixing process.

In the case of `C=CC(=O)N1CCC([C@@H]2CCNc3c(C(N)=O)c(-c4ccc(Oc5ccccc5)cc4)nn32)CC1` [zanubrutinib, (S)-7-[4-(1-acryloylpiperidine)]-2-(4-phenoxyphenyl)-4,5,6,7-tetrahydropyrazolo[1,5-a]pyrimidine-3-carboxamide], in series [1], the “class of the biopharmaceutical classification system” value is on record as “class II” and the solubility result is recorded as “pH-dependent”. Moreover, in series [2], the hygroscopicity result is given as “slightly hygroscopic”. Moreover, the “crystal form of zanubrutinib in the process (XRPD)” value in series [3] is “remained unchanged”.
